The values that follow come from patent US20050197350A1, “Novel quinoline, tetrahydroquinazoline, and pyrimidine derivatives and methods of treatment related to the use thereof” (TAISHO PHARMACEUTICAL CO., LTD., priority 2003, published 2005).

This experiment concerns MCH receptors. Kind of experiment: MCH receptor activity class (method not given). Particulars: MCH receptor; class by percent of control at 10^-7 M or IC50.

For the compound `CN(C)c1cc(N[C@H]2CC[C@@H](NC(=O)Cc3cccs3)CC2)nc2ccccc12` [compound 53], the class is 3 (Class 3 The value of percent of control at 10^−7 M was more than 60% or the value of IC50 was more than 200 nM.).

Take `CN(C)c1cc(N[C@H]2CC[C@@H](NC(=O)c3cccc(OC(F)(F)F)c3)CC2)nc2ccccc12` [compound 54, N-(cis-4-{[4-(dimethylamino)quinolin-2-yl]amino}cyclohexyl)-3-(trifluoromethoxy)benzamide]: the class is given as 2 (Class 2: The value of percent of control at 10^−7 M was from 40% to 60% or the value of IC′50 was from 50 nM to 200 nM.).

In the case of `CN(C)c1cc(N[C@H]2CC[C@@H](NC(=O)OCc3ccccc3)CC2)nc2ccccc12` [compound 55], the class is 3 (Class 3 The value of percent of control at 10^−7 M was more than 60% or the value of IC50 was more than 200 nM.).

With `CN(C)c1cc(N[C@H]2CC[C@@H](NC(=O)OCc3ccc([N+](=O)[O-])cc3)CC2)nc2ccccc12` [compound 56], the class is 3 (Class 3 The value of percent of control at 10^−7 M was more than 60% or the value of IC50 was more than 200 nM.).

For the compound `Cc1cc(C(=O)N[C@H]2CC[C@@H](Nc3cc(N(C)C)c4ccccc4n3)CC2)ccc1Br` [compound 57, 4-bromo-N-(cis-4-{[4-(dimethylamino)quinolin-2-yl]amino}cyclohexyl)-3-methylbenzamide], the class was 1 (Class 1: The value of percent of control at 10^−7 M was less than 40% or the value of IC50 was less than 50 nM.).

On to `CN(C)c1cc(N[C@H]2CC[C@@H](NC(=O)c3cccc(I)c3)CC2)nc2ccccc12` [compound 58, N-(cis-4-{[4-(dimethylamino)quinolin-2-yl]amino}cyclohexyl)-3-iodobenzamide], for which the class was 2 (Class 2: The value of percent of control at 10^−7 M was from 40% to 60% or the value of IC′50 was from 50 nM to 200 nM.).

Consider `CN(C)c1cc(N[C@H]2CC[C@@H](NC(=O)c3cccc(Cl)c3F)CC2)nc2ccccc12` [compound 59], for which the class is reported as 3 (Class 3 The value of percent of control at 10^−7 M was more than 60% or the value of IC50 was more than 200 nM.).

Regarding `Cc1ccc(C(=O)N[C@H]2CC[C@@H](Nc3cc(N(C)C)c4ccccc4n3)CC2)c(F)c1F` [compound 60], the class is reported as 3 (Class 3 The value of percent of control at 10^−7 M was more than 60% or the value of IC50 was more than 200 nM.).

Consider `CN(C)c1cc(N[C@H]2CC[C@@H](NC(=O)c3ccc(F)cc3Cl)CC2)nc2ccccc12` [compound 61], for which the class is reported as 3 (Class 3 The value of percent of control at 10^−7 M was more than 60% or the value of IC50 was more than 200 nM.).

As to `CN(C)c1cc(N[C@H]2CC[C@@H](NC(=O)c3ccc(F)c(Cl)c3F)CC2)nc2ccccc12` [compound 62, 3-chloro-N-(cis-4-{[4-(dimethylamino)quinolin-2-yl]amino}cyclohexyl)-2,4-difluorobenzamide], the class is 2 (Class 2: The value of percent of control at 10^−7 M was from 40% to 60% or the value of IC′50 was from 50 nM to 200 nM.).

In the case of `CN(C)c1cc(N[C@H]2CC[C@@H](NC(=O)CSc3ccccc3)CC2)nc2ccccc12` [compound 63], the class is 3 (Class 3 The value of percent of control at 10^−7 M was more than 60% or the value of IC50 was more than 200 nM.).

For the compound `CN(C)c1cc(N[C@H]2CC[C@@H](NC(=O)c3cccc(C(F)(F)F)c3F)CC2)nc2ccccc12` [compound 64], the class is 3 (Class 3 The value of percent of control at 10^−7 M was more than 60% or the value of IC50 was more than 200 nM.).

Regarding `CN(C)c1cc(N[C@H]2CC[C@@H](NC(=O)c3cc(C(F)(F)F)ccc3F)CC2)nc2ccccc12` [compound 65], the class was 3 (Class 3 The value of percent of control at 10^−7 M was more than 60% or the value of IC50 was more than 200 nM.).

For `COc1cccc(CC(=O)N[C@H]2CC[C@@H](Nc3cc(N(C)C)c4ccccc4n3)CC2)c1` [compound 67], the class is recorded as 3 (Class 3 The value of percent of control at 10^−7 M was more than 60% or the value of IC50 was more than 200 nM.).

Turning to `CN(C)c1cc(N[C@H]2CC[C@@H](NC(=O)Cc3ccc(F)cc3)CC2)nc2ccccc12` [compound 68], the class is on record as 3 (Class 3 The value of percent of control at 10^−7 M was more than 60% or the value of IC50 was more than 200 nM.).

`COc1ccc(CC(=O)N[C@H]2CC[C@@H](Nc3cc(N(C)C)c4ccccc4n3)CC2)cc1` [compound 69]: the class is 3 (Class 3 The value of percent of control at 10^−7 M was more than 60% or the value of IC50 was more than 200 nM.).

As for `Cc1cc(C(=O)N[C@H]2CC[C@@H](Nc3cc(N(C)C)c4ccccc4n3)CC2)c(C(F)(F)F)o1` [compound 70], the class was 3 (Class 3 The value of percent of control at 10^−7 M was more than 60% or the value of IC50 was more than 200 nM.).

On to `Cc1cc(C(=O)N[C@H]2CC[C@@H](Nc3cc(N(C)C)c4ccccc4n3)CC2)c(C)o1` [compound 71, N-(cis-4-{[4-(dimethylamino)quinolin-2-yl]amino}cyclohexyl)-2,5-dimethyl-3-furamide], for which the class is recorded as 1 (Class 1: The value of percent of control at 10^−7 M was less than 40% or the value of IC50 was less than 50 nM.).

On to `CCOc1ccccc1C(=O)N[C@H]1CC[C@@H](Nc2cc(N(C)C)c3ccccc3n2)CC1` [compound 72], for which the class is reported as 3 (Class 3 The value of percent of control at 10^−7 M was more than 60% or the value of IC50 was more than 200 nM.).

For the compound `CN(C)c1cc(N[C@H]2CC[C@@H](NC(=O)c3ccc(F)c(Cl)c3)CC2)nc2ccccc12` [compound 73, 3-chloro-N-(cis-4-{[4-(dimethylamino)quinolin-2-yl]amino}cyclohexyl)-4-fluorobenzamide], the class is reported as 1 (Class 1: The value of percent of control at 10^−7 M was less than 40% or the value of IC50 was less than 50 nM.).

On to `Cc1ccc(C(=O)N[C@H]2CC[C@@H](Nc3cc(N(C)C)c4ccccc4n3)CC2)cc1F` [compound 74, N-(cis-4-{[4-(dimethylamino)quinolin-2-yl]amino}cyclohexyl)-3-fluoro-4-methylbenzamide], for which the class is 2 (Class 2: The value of percent of control at 10^−7 M was from 40% to 60% or the value of IC′50 was from 50 nM to 200 nM.).

Regarding `CN(C)c1cc(N[C@H]2CC[C@@H](NC(=O)CC3CCCC3)CC2)nc2ccccc12` [compound 75], the class is 3 (Class 3 The value of percent of control at 10^−7 M was more than 60% or the value of IC50 was more than 200 nM.).

`COc1cc(OC)cc(C(=O)N[C@H]2CC[C@@H](Nc3cc(N(C)C)c4ccccc4n3)CC2)c1` [compound 76, N-(cis-4-{[4-(dimethylamino)quinolin-2-yl]amino}cyclohexyl)-3,5-dimethoxybenzamide]: the class was 3 (Class 3 The value of percent of control at 10^−7 M was more than 60% or the value of IC50 was more than 200 nM.).

With `CN(C)c1cc(N[C@H]2CC[C@@H](NC(=O)c3ccc(C#N)cc3)CC2)nc2ccccc12` [compound 77], the class is listed as 3 (Class 3 The value of percent of control at 10^−7 M was more than 60% or the value of IC50 was more than 200 nM.).

In the case of `CN(C)c1cc(N[C@H]2CC[C@@H](NC(=O)c3cc(C(F)(F)F)cc(C(F)(F)F)c3)CC2)nc2ccccc12` [compound 78, N-(cis-4-{[4-(dimethylamino)quinolin-2-yl]amino}cyclohexyl)-3,5-bis(trifluoromethyl)benzamide], the class is on record as 2 (Class 2: The value of percent of control at 10^−7 M was from 40% to 60% or the value of IC′50 was from 50 nM to 200 nM.).
